We go through three compounds from US9475779B2, “Substituted bicyclic dihydropyrimidinones and their use as inhibitors of neutrophil elastase activity” (priority 2014, dated 2016).

The target in one series is cytochrome P450 2C19 (Homo sapiens (Human), UniProt P33261). Nature of the series: biochemical.
A further series concerns the target cytochrome P450 2C9 (Homo sapiens (Human), UniProt P11712). Nature of the series: biochemical.
A short description of a further series: in vitro. It counts as in vitro ADME. The following applies: human, pH 7.2, 37° C.; for Papp A→B at 10 μM: Caco-2, pH 7.2, Caco-2, apical-to-basal, read-out: PEAB; for Papp B→A at 10 μM: Caco-2, pH 7.2, Caco-2, basal-to-apical, read-out: PEBA.
For another series, the target named is cytochrome P450 2C8 (Homo sapiens (Human), UniProt P10632). In words: biochemical.
The target in series [1] is T1, neutrophil elastase (Homo sapiens (Human), UniProt P08246). In words: biochemical.
The next series addresses hERG potassium channel (Homo sapiens (Human), UniProt Q12809). In words: in vitro.
The target in series [2] is T1, neutrophil elastase. In words: biochemical. In kind it is biochemical.
Procedure: Human Neutrophil Elastase Assay
All other materials were of the highest grade commercially available.
The following buffers were used: Compound buffer: 100 mM Tris, 500 mM NaCl, adjusted to pH 7.5; Assay buffer: 100 mM Tris, 500 mM NaCl, adjusted to pH 7.5, containing 0.01% BSA.
Assay conditions: Test compounds were prediluted in DMSO and subsequently in compound buffer (5% DMSO final). […] After inactivation of the enzyme, fluorescence intensities were measured at 380 nm excitation and 460 nm emission wavelengths.
Each plate contains wells with a high value control (DMSO+enzyme+substrate) and wells with a low value control (DMSO+inactivated enzyme+substrate). IC50 values were estimated using a sigmoidal concentration response curve with variable slope. Means of low values were taken as 0%, means of high values as 100%.
The next series in a line: physchem. It counts as physicochemical. The following applies: McIlvaine buffer pH 6.8 containing 2.5% DMSO, pH 6.8, aqueous buffer, kinetic from dmso stock, McIlvaine buffer pH 6.8, 2.5% DMSO, 24 h.
Series [3] in a line: Metabolic stability with human liver microsomes. It counts as in vitro ADME. The conditions noted are these: human, pooled human liver microsomes, pH 7.6, pooled human liver microsomes, 1 μM test compound, 37° C.; read-out: t1/2 INVITRO.
A further series concerns Caco-2 cells. In words: in vitro. It counts as in vitro ADME. The conditions noted are these: pH 7.2.
The test system of a further series is human hepatocytes. Nature of the series: Metabolic stability with human hepatocytes. In kind it is in vitro ADME. The conditions noted are these: well stirred model. The procedure: Assay for the Determination of Metabolic Stability with Human Hepatocytes
The metabolic degradation of the test compound is assayed in a human hepatocyte suspension. Human hepatocytes (typically cryopreserved) are incubated in an appropriate buffer system (e.g. Dulbecco's modified eagle medium plus […]/500 mL, 2.5 mg insulin/500 mL and 3.75 mg/500 mL hydrocortison) containing 5% species serum. Following a (typically) 30 min preincubation in an incubator (37° C., 10% CO2), 5 μl of test compound solution (80 μM; from 2 mM stock solution in DMSO diluted 1:25 with medium) are added into 395 μl hepatocyte suspension (cell density in the range 0.25-5*10^6 cells/mL, typically 1*10^6 cells/mL; final concentration of test compound 1 μM, final DMSO concentration 0.05%). The cells are incubated for six hours (incubator, orbital shaker) and samples (25 μl) are taken at 0, 0.5, 1, 2, 4 and 6 hours. Samples are transferred into acetonitrile and pelleted by centrifugation (5 min). […] The decline of parent compound is analyzed by LC-MS/MS.
The intrinsic clearance CL_[…] is calculated as follows: CL_[…]=Dose/AUC=(C0/CD)/(AUD+clast/k)*1′000/60 (C0: initial concentration in the incubation […], CD: cell density of vital cells [10^6 cells/mL], AUD: area under the data [μM*h], clast: concentration of last data point [μM], k: slope of the regression line for parent decline [h^−1]) […]

≈ marks a conversion by molar mass, not a printed value. Read-outs that look alike come from different tables or passages of the source.

Chain of cytochrome P450 2C9 (P11712 whole entry, looked up): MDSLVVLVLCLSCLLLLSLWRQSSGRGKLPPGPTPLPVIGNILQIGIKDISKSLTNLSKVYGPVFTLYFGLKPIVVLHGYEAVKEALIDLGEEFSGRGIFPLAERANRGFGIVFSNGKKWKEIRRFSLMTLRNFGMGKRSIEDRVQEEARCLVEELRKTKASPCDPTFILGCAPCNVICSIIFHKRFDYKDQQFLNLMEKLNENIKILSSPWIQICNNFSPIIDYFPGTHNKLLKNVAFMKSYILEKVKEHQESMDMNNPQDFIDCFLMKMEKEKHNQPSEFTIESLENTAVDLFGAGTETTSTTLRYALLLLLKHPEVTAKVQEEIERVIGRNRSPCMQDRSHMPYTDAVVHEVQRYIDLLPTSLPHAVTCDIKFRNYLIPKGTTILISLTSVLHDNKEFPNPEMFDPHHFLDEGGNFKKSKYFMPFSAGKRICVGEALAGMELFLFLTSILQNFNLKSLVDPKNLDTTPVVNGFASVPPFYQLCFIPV
Chain of cytochrome P450 2C8 (P10632 whole entry, looked up): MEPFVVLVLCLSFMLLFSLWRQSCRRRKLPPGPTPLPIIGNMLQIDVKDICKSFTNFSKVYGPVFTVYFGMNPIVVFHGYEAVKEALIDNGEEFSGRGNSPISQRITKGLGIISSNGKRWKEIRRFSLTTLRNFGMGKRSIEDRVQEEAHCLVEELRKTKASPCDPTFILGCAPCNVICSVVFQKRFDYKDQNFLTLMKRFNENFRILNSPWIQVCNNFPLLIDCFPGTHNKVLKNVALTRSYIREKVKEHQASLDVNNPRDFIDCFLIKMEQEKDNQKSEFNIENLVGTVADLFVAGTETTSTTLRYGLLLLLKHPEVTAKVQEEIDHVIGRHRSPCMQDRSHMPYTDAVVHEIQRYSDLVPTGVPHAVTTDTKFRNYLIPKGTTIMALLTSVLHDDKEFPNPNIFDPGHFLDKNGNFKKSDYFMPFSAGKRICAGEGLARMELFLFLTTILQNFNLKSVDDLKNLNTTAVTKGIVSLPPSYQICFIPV
T1 sequence (P08246 whole entry, looked up): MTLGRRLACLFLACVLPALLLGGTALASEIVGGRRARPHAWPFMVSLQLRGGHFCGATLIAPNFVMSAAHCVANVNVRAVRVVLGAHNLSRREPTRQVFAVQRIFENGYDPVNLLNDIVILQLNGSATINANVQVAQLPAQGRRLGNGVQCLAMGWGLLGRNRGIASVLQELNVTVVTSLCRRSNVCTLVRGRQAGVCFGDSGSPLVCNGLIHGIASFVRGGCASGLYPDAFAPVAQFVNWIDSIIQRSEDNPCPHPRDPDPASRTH
Chain of cytochrome P450 2C19 (P33261 whole entry, looked up): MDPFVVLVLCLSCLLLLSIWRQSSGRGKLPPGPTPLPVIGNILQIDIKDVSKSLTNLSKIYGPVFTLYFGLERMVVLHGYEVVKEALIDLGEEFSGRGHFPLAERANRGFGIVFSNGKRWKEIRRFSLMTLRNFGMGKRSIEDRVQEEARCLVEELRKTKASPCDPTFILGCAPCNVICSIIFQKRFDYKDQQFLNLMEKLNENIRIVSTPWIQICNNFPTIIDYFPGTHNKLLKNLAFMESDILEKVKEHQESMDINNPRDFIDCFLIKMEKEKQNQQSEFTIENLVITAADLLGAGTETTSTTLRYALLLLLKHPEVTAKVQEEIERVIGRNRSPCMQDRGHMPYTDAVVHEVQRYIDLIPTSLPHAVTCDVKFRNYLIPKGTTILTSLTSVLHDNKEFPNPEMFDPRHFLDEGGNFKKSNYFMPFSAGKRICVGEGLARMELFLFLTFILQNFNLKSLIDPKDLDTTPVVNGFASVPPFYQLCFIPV

For `CN1C(=O)N(c2cccc(C(F)(F)F)c2)C2=C(C(=O)CC2)C1c1ccc(C#N)cc1CO` (single isomer, unassigned) [Example A.1A, 3-Hydroxymethyl-4-[3-methyl-2,5-dioxo-1-(3-trifluoromethyl-phenyl)-2,3,4,5,6,7-hexahydro-1H-cyclopentapyrimidin-4-yl]-benzonitrile], the IC50 was above 50 µM against cytochrome P450 2C19, above 50 µM at cytochrome P450 2C9, above 50 µM against cytochrome P450 2C8 and below 0.001 µM at neutrophil elastase [2] (IC50). Also, in the series “in vitro”, the Papp A→B at 10 μM was 53 ×10⁻⁶ cm/s. Also, the Papp B→A at 10 μM in the series “in vitro” turned out to be 98 ×10⁻⁶ cm/s. The compound further showed an EC50 at neutrophil elastase [1] of 0.002 µM. Moreover, the inhibition at 10 µM against hERG potassium channel turned out to be 7%. The same compound showed a solubility at 24 h in “physchem” of 58 µg/mL (≈ 131 µM).
`CN1C(=O)N(c2cccc(C(F)(F)F)c2)C2=C(C(=O)CC2)[C@H]1c1ccc(C#N)cc1S(=O)(=O)CCO` [Example B.1.2B]: the IC50 is above 50 µM against cytochrome P450 2C19, above 50 µM on cytochrome P450 2C9, above 50 µM against cytochrome P450 2C8 and below 0.001 µM against neutrophil elastase [2] (IC50). The Papp A→B at 10 μM in the series “in vitro” worked out at 12 ×10⁻⁶ cm/s. Moreover, the Papp B→A at 10 μM in the series “in vitro” is 120 ×10⁻⁶ cm/s. Besides, the response at neutrophil elastase [1] was half-maximal at 0.001 µM (EC50). The compound also gave an inhibition at 10 µM on hERG potassium channel of 12%. The half-life at 1 μM in [3] is above 2.17 h. This compound yielded a solubility at 24 h in the series “physchem” of 73 µg/mL (≈ 141 µM).
In the case of `CN1C(=O)N(c2cccc(C(F)(F)F)c2)C2=C(C(=O)CC2)[C@H]1c1ccc(C#N)cc1[S+](C)[O-]` (single isomer, unassigned) [Example C.2A, 3-Methanesulfinyl-4-[3-methyl-2,5-dioxo-1-(3-trifluoromethyl-phenyl)-2,3,4,5,6,7-hexahydro-1H-cyclopentapyrimidin-4-yl]-benzonitrile], the IC50 against cytochrome P450 2C19 was above 50 µM; against cytochrome P450 2C9, above 50 µM; at cytochrome P450 2C8, above 50 µM; at neutrophil elastase [2] (read-out: IC50), below 0.001 µM. The same compound returned a PEAB in the series with Caco-2 cells of 13 ×10⁻⁶ cm/s. Also, in the series on Caco-2 cells, the PEBA turned out to be 73 ×10⁻⁶ cm/s. Besides, it took 0.002 µM to reach a half-maximal effect at neutrophil elastase [1] (EC50). On hERG potassium channel, this compound registered an inhibition at 10 µM of 7%. Further, the half-life at 1 μM in series [3] is above 2.17 h. Also, the concentration in solution in “physchem” (solubility at 24 h) was 58 µg/mL (≈ 122 µM). The “predicted hepatic in vivo blood clearance” value in the series with human hepatocytes is given as 3 % human hepatic blood flow.
